Results taken from paper PMC9561728, “Safety and efficacy of a GLP-1 and glucagon receptor dual agonist mazdutide (IBI362) 9 mg and 10 mg in Chinese adults with overweight or obesity: A randomised, placebo-controlled, multiple-ascending-dose phase 1b trial” (eClinicalMedicine, 2022).
Read-outs that look alike come from different tables or passages of the source.

Experiments:
[1] = test system: Chinese adults with overweight or obesity; details: in vivo
Experimental: (§21) The study included a 3-week screening period, a 12-week or 16-week treatment period and an 8-week safety follow-up period. During the treatment period, mazdutide or placebo was subcutaneously administered once weekly with one of the following dose-escalation regimens: 9 mg cohort (3 mg weeks 1-4; 6 mg weeks 5-8; 9 mg weeks 9-12) and 10 mg cohort (2.5 mg weeks 1-4; 5 mg weeks 5-8; 7.5 mg weeks 9-12; 10 mg weeks 13-16) (Figure S1). The escalation regimen in the 10 mg cohort provided relatively slower titration (2.5 mg every 4 weeks) to the target dose of 10 mg, and the escalation regimen in the 9 mg cohort adopted faster titration (3 mg every 4 week). Participants were required to maintain the original diet, exercise and lifestyle during the trial.
(§22) The primary outcomes were safety and tolerability of mazdutide. […] The severity of the TEAEs (mild, moderate or severe) and the association between an event and the study drug was assessed by investigators based on pre-specified criteria.
(§23) Safety analyses were done in the safety population (defined as all participants who received at least one dose of the study treatment).

[2] = test system: Chinese adults with overweight or obesity; experiment: Immunogenicity: anti-drug antibodies and neutralizing antibodies, phase 1b trial; format: in vivo, human; details: for Participants who developed treatment-induced anti-mazdutide antibodies: n = 8
Experimental: (§1) Secondary outcomes included pharmacokinetics, assessed by maximum observed plasma concentration (Cmax), time at which Cmax was observed (Tmax), terminal elimination half-life (t½), and area under the curve from time zero to 168 h after the first dose (AUC0–168 h) and immunogenicity, assessed by titters of anti-drug antibodies (ADAs) and neutralizing antibodies. Secondary efficacy outcomes included the change from baseline to week 12 (9 mg cohort) or week 16 (10 mg cohort) in body weight, waist circumference, BMI, as well as the change from baseline in HbA1c, lipids, transaminase and serum uric acid levels.

[3] = test system: Chinese adults with overweight or obesity; experiment: Vital signs and laboratory safety (heart rate, blood pressure, lipase, transaminases), phase 1b trial; format: in vivo, human; details: for Mean change from baseline in heart rate (maximum): placebo 4.3
From the text: The primary outcomes were safety and tolerability of mazdutide.
(§2) Summaries for other efficacy and safety variables included descriptive statistics for continuous measures (mean and standard deviation or standard error) and for categorical measures (sample size, frequency and percentages).

[4] = test system: Chinese adults with overweight or obesity; experiment: Change from baseline in body weight, BMI and waist circumference (MMRM), phase 1b trial; format: in vivo, human; details: for Participants who achieved 10% body weight loss or more / Participants who achieved 15% body weight loss or more: during the study; for Participants who achieved 10% body weight loss or more / Participants who achieved 15% body weight loss or more / CFB in BMI / CFB in body weight / CFB in waist circumference / Percent CFB in body weight: n = 8
Experimental: as §1
The sample size of 12 participants per cohort was empirically determined to provide preliminary safety, tolerability, pharmacokinetics data while minimizing the number of participants. No formal hypothesis testing was planned. Participants receiving placebo were pooled for analysis on the change from baseline in body weight, waist circumference and BMI.
The analyses for the change from baseline in body weight, waist circumference and BMI were performed using mixed-effect model for repeated measures (MMRM), with least squares mean change or mean percent change from baseline at each follow-up time analysed using a restricted maximum likelihood (REML)‐based repeated measures approach in combination with the Newton Raphson Algorithm. The MMRM included the corresponding baseline value, treatment, visit and treatment-by-visit as fixed effects and patient as a random effect, with an unstructured covariance matrix used. In case of non-converge, matrix like Variance Components and Compound Symmetry will be tested in a subsequent order until model‐convergence is achieved. The Kenward-Roger degree of freedom was used in estimating fixed effects. No missing data imputation was conducted. Point estimate of treatment difference versus placebo at week 12 for the 9 mg cohort and at week 16 for the 10 mg cohort were provided, together with corresponding 95% CI and nominal p value.

[5] = Solubility of the study drug; format: physicochemical; details: study protocol
Experimental: (§3) 5.2.1 Physical and chemical characteristi cs of the study drug
(§4) Molecular Weight: 4560.32 Daltons
(§5) Description: White to off-white powder
(§6) Solubility: Solvent: 20 mM Tris buffer at pH 8.0 and 150 mM sodium chloride.
(§7) Solubility: Not less than 10 mg/mL at 25 ℃.
(§8) 5.2.2 Study Drug Strength and Manufacturer
(§9) The IB I362 dru g produ ct is IBI362 for injection an d consists of 2 mg IB I362 and the […]
(§10) contents are reconstituted with sterile water for injection to obtain a clear solution of […]
(§11) ingredients tris (hydroxymethyl) aminomethane, mannitol, and sucrose." The vial contents are reconstituted with sterile water for injection to obtain a clear solution devoid […]
(§12) The dru g product stren gt h used in this stud y was 2 mg/vial, and the placebo strengt h matched the drug product and was provided b y the Sponsor.
(§13) The drug product and placebo should be stored under refrigerated conditions (2 ℃ […]
(§14) 5.2.4 Mode of administration
(§15) Both IBI362 and placebo will be administered by subcutaneous injection once a week. Each dose should be prepared and injected by the stud y nurse. See the Instructions for Use fo rdetails of the preparation and use of the study drug.
(§16) 5.3.1 Prohibited Medications
(§17) The following m edicatio ns and measur es ar e cont raindicated:
(§18) 1. Growth hormone and its analogues;
(§19) 2. Any systemic corticosteroid (including intravenous, oral, intra-articular) administered for ≥ 7 da ys. […]

[6] = test system: Chinese adults with overweight or obesity; experiment: Treatment-emergent adverse events, phase 1b trial, 9 mg and 10 mg cohorts; details: n = 8
Experimental: as §21, §22, §23

[7] = test system: Chinese adults with overweight or obesity; experiment: HbA1c and metabolic parameters, phase 1b trial; format: in vivo, human
Experimental: as §1, §2

[8] = Non-compartmental plasma pharmacokinetics, phase 1b trial; format: in vivo; details: human; for AUC(0-t) / Cmax: geometric mean (CV%); for AUC(0-t): n = 8, read-out: AUC0-168h; for Tmax: median (range); for Tmax / Cmax: n = 8; for Cmax: non-compartmental
From the text: 6.3 PK/ PD assessment vari ables
6.3.1 PK Sample Collection
PK sampling will be performed according to the Schedule of Visits (Table 2, Table 4, Table 6), PK/PD Sampling Schedule (Table 3- 1, Table 3- 2, Table 5-1, Table 5- 2, Table 7-1, Table 7- 2), and ex aminations will be performed at a central laborator y. 3 m L of whole blood was collected into a […] vacutainer, plasma was separated, aliquoted and stored frozen for PK analysis of IBI362. Details of sampling methods, sample storage, transportation and analysis were provided in the Laboratory Manual provided by the central laboratory designated by the sponsor. […]
• Pharmacokinetic parameters, including but not limited to Tmax, Cmax, product under the concentration- time curve (AUC), volum e of distribution (Vd), half-life (T1/2), clearan ce (C L) an d accumulation co efficient (AR); […]

mice = details: cited from earlier work
Experimental: (§20) Mazdutide (also known as IBI362 or LY3305677) is a once-weekly mammalian oxyntomodulin analogue. […] In a phase 1b clinical trial in Chinese adults with overweight or obesity, mazdutide dosed up to 6 mg achieved 12-week mean body weight loss up to 6.4%.[11] Given the favourable safety profile and the robust body weight loss achieved in the low-dose cohort ...

human glucagon receptors = details: in vitro; cited from earlier work
Experimental: as §20

mouse GLP-1 receptors = details: in vitro; cited from earlier work
Experimental: as §20

mouse glucagon receptors = details: in vitro; cited from earlier work
Experimental: as §20

human GLP-1 receptors = details: in vitro; cited from earlier work
Experimental: as §20

[9] = test system: Chinese adults with overweight or obesity; details: low dose cohorts; cited from earlier work
Experimental: Summary Background Mazdutide (also known as IBI362 or LY3305677), a novel once-weekly glucagon-like peptide-1 (GLP-1) and glucagon receptor dual agonist, achieved 12-week body weight loss up to 6.4% at doses up to 6 mg in Chinese adults with overweight or obesity. We further explored the safety and efficacy of mazdutide dosed up to 9 mg and 10 mg. Methods In this randomised, placebo-controlled, multiple-ascending-dose phase 1b trial, we enrolled adults (aged 18-75 years, both inclusive) with overweight (body-mass index [BMI] ≥24 kg/m^2) accompanied by hyperphagia and/or at least one obesity-re ... || A PubMed search on July 4, 2022, with the terms “glucagon-like peptide-1″, [AND] “glucagon receptor”, [AND] “dual agonist”, in the Title or Abstract yielded 31 results. […] Mazdutide dosed up to 6 mg achieved 12-week mean body weight loss up to 6.4% in Chinese adults with overweight or obesity. || Mazdutide (also known as IBI362 or LY3305677) is a once-weekly mammalian oxyntomodulin analogue. […] In a phase 1b clinical trial in Chinese adults with overweight or obesity, mazdutide dosed up to 6 mg achieved 12-week mean body weight loss up to 6.4%.[11] Given the favourable safety profile and the robust body weight loss achieved in the low-dose cohort ... || (+ 2 further places)

[10] = Isoelectric point (PI) of the study drug; format: physicochemical; details: study protocol
Experimental: as §3, §4, §5, §6, §7, §8, §9, §10, §11, §12, §13, §14, §15, §16, §17, §18, §19

Japanese and US subjects = details: single-dose (0.03, 0.1, 0.3, 1.0, 2.5, 5.0 mg) escalation, ref earlier single-dose studies quoted in protocol; cited from earlier work
[11] = 9 mg cohort, week 12, LS mean (SE), MMRM
[12] = 9 mg cohort, week 12, estimate (95% CI), MMRM
[13] = 10 mg cohort, week 16, LS mean (SE), MMRM
[14] = 10 mg cohort, week 16, estimate (95% CI), MMRM
[15] = 9 mg cohort (sc QW 3/6/9 mg, 4 wk each)
[16] = 10 mg cohort (sc QW 2.5/5/7.5/10 mg, 4 wk each)
[17] = 9 mg cohort, week 12, participants without type 2 diabetes

## CC(C)C[C@H](NC(=O)[C@H](CC(C)C)NC(=O)[C@H](Cc1c[nH]c2ccccc12)NC(=O)[C@H](CCC(=O)O)NC(=O)[C@@H](NC(=O)[C@H](Cc1ccccc1)NC(=O)[C@H](CCC(=O)O)NC(=O)[C@H](CCCCNC(=O)COCCOCCNC(=O)COCCOCCNC(=O)CC[C@H](NC(=O)CCCCCCCCCCCCCCCCCCC(=O)O)C(=O)O)NC(=O)[C@H](C)NC(=O)[C@H](CCCCN)NC(=O)[C@H](CCCCN)NC(=O)[C@H](CCC(=O)O)NC(=O)[C@H](CC(=O)O)NC(=O)[C@H](CC(C)C)NC(=O)[C@H](Cc1ccc(O)cc1)NC(=O)[C@H](CCCCN)NC(=O)[C@H](CO)NC(=O)[C@H](Cc1ccc(O)cc1)NC(=O)[C@H](CC(=O)O)NC(=O)[C@H](CO)NC(=O)[C@@H](NC(=O)[C@H](Cc1ccccc1)NC(=O)[C@@H](NC(=O)CNC(=O)[C@H](CCC(N)=O)NC(=O)C(C)(C)NC(=O)[C@@H](N)Cc1c[nH]cn1)[C@@H](C)O)[C@@H](C)O)C(C)C)C(=O)N[C@@H](CCC(=O)O)C(=O)NCC(=O)NCC(=O)N1CCC[C@H]1C(=O)N[C@@H](CO)C(=O)N[C@@H](CO)C(=O)NCC(N)=O [Mazdutide]
[1]
  Participants with treatment-emergent adverse events: 100%
  Severity of treatment-emergent adverse events: all mild or moderate in severity
[2]; 9 mg cohort
  Participants who developed treatment-induced anti-mazdutide antibodies: Two
[2]; 10 mg cohort
  Participants who developed treatment-induced anti-mazdutide antibodies: four
[2]; 10 mg cohort, attenuated cAMP generation in CHO cells over-expressing human recombinant glucagon receptors
  Participants who developed neutralizing antibodies: One
[3]; 9 mg cohort
  Mean change from baseline in heart rate (maximum): up to 17.4 beats per minute
[3]; 10 mg cohort, 153 U/L at baseline, upper limit of normal 300 U/L, returned to normal at safety follow-up
  Lipase level in one participant at week 16: 739 U/L
[3]; 10 mg cohort
  Mean change from baseline in heart rate (maximum): ≤ 11.6 beats per minute
[3]; one participant in 9 mg cohort, one in 10 mg cohort
  Transaminase elevation in the two participants with ALT/AST increased: mild (within three times upper limit of normal) and transient
[4]; 9 mg cohort
  Participants who achieved 10% body weight loss or more: 50%
  Participants who achieved 15% body weight loss or more: 25%
[4]; [11]
  CFB in BMI: −3.51 (0.46) kg/m^2
  CFB in body weight: −9.23 (1.2) kg
  CFB in waist circumference: −5.79 (1.45) cm
  Percent CFB in body weight: −11.7 (1.5) %
[4]; [12]
  CFB in BMI, ETD versus pooled placebo: −2.96 (−4.37, −1.54) kg/m^2
  CFB in body weight, ETD versus pooled placebo: −7.65 (−11.32, −3.98) kg
  CFB in waist circumference, ETD versus pooled placebo: −5.15 (−9.63, −0.67) cm
  Percent CFB in body weight, ETD versus pooled placebo: −9.8 (−14.4, −5.3) %
[4]; 10 mg cohort
  Participants who achieved 10% body weight loss or more: 50%
  Participants who achieved 15% body weight loss or more: 25%
[4]; [13]
  CFB in BMI: −2.96 (0.56) kg/m^2
  CFB in body weight: −7.62 (1.39) kg
  CFB in waist circumference: −3.36 (1.59) cm
  Percent CFB in body weight: −9.5 (1.7) %
[4]; [14]
  CFB in BMI, ETD versus placebo: −1.89 (−3.63, −0.15) kg/m^2
  CFB in body weight, ETD versus placebo: −4.76 (−9.10, −0.43) kg
  CFB in waist circumference, ETD versus placebo: −1.18 (−7.65, 5.29) cm
  Percent CFB in body weight, ETD versus placebo: −6.2 (−11.5, −0.9) %
[5]; 20 mM Tris buffer at pH 8.0 and 150 mM sodium chloride, 25 ℃
  Solubility: Not less than 10 mg/mL
[5]
  Solubility Description: Sparingly or slightly soluble
[6]; [15]
  TEAE: Infections and infestations (system organ class): 6 (75.0) n (%)
  TEAE: Upper respiratory tract infection: 3 (37.5) n (%)
  TEAE: Urinary tract infection: 4 (50) n (%)
[6]; [16]
  TEAE: Infections and infestations (system organ class): 5 (62.5) n (%)
  TEAE: Upper respiratory tract infection: 4 (50) n (%)
  TEAE: Urinary tract infection: 2 (25) n (%)
[7]; [17]
  Participants with a 0.4% HbA1c reduction from baseline: three
  Participants with a 0.8% HbA1c reduction from baseline: two
[7]; 10 mg cohort, week 16, participants without type 2 diabetes
  Participants with a 0.4% HbA1c reduction from baseline: two
[7]; both dose regimens, compared with placebo
  Metabolic parameters including triglycerides, low density lipoprotein cholesterol, total cholesterol and serum uric acid: Greater improvements
[7]; high-dose cohorts
  Non-diabetic participants with slight elevation in end-of-treatment HbA1c levels: two
[8]; after first sc dose 2.5 mg
  AUC(0-t): 21.8 µg·h/mL
  Tmax: 72.3 h
  Cmax: 0.179 µg/mL
[8]; after first sc dose 3 mg
  AUC(0-t): 31.4 µg·h/mL
  Tmax: 72.4 h
  Cmax: 0.226 µg/mL
mice; both Gcgr knockout (KO) and Glp1r KO settings
  Body weight: decreased body weight
mice
  Energy expenditure: increased energy expenditure
  Glucose control: improved glucose control
Human glucagon receptors
  Binding to human glucagon receptors: potently bound
Mouse GLP-1 receptors
  Binding to mouse GLP-1 receptors: potently bound
Mouse glucagon receptors
  Binding to mouse glucagon receptors: potently bound
Human GLP-1 receptors
  Binding to human GLP-1 receptors: potently bound
[9]
  Incidence of abdominal distension: 12.5%
  Incidence of diarrhoea: 37.5%
  Incidence of nausea: up to 37.5%
  Incidence of vomiting: 12.5%
[10]
  PI: 5.2
Japanese and US subjects
  maximum tolerated dose (MTD) of single-dose study: 2.5 mg
